The results in this text go back to patent US20020110830A1, “VEGF responsive cell-based assay for determining VEGF bioactivity” (priority 2001, published 2002).

For the experiment, the target named is T1, FLK-1 VEGF receptor (Mus musculus, UniProt P35918).
T1 construct: expressed in transfected cells; host or cells: HeLa (HLR-ELK-1, Stratagene) stably co-transfected with the FLK-1 expression vector; clone #5
The experiment can be described thus: VEGF responsive luciferase assay in VEGF-receptor stable transfected HLR-ELK-1 cell line (clone #5). The format is cell-based. Conditions: FIG. 9. The text has this:
The assay of the present invention utilizes a stable VEGF responsive cell line which comprises HeLa cells which have been stably transfected with a reporter vector having an expressible reporter element and a DNA binding element disposed adjacent thereto. Preferably, the reporter vector includes a gene encoding a detectable gene product which is disposed downstream of a basic promoter element, preferably a TATA box, which is joined to the binding element which is preferably a GAL4 binding element. […]
In general, utilizing known signal transduction relationships and/or pathways, a sample to be assayed for VEGF bioactivity is placed in a container containing the stable cell line as described above. […] Activated FLK-1, which is a known VEGF receptor, then activates MAP kinase (Kroll and Waltenberger, J. Biol. Chem., 1997:272:32521-32527; Doanes et. al., Biochem. Biophys. Res. Comm., 1999;255:545-548. The activated MAP kinase phosphorylates the fusion trans-activation protein (GAL4 DNA binding domain [dbd] fused with ELK-1). The phosphorylated fusion protein binds to the GAL4 DNA binding site of the reported vector activating luciferase expression. Luciferase expression can be detected utilizing techniques well-known in the art. The presence or expression of luciferase indicates VEGF activity in the sample. […]

T1 sequence (P35918 20-1345): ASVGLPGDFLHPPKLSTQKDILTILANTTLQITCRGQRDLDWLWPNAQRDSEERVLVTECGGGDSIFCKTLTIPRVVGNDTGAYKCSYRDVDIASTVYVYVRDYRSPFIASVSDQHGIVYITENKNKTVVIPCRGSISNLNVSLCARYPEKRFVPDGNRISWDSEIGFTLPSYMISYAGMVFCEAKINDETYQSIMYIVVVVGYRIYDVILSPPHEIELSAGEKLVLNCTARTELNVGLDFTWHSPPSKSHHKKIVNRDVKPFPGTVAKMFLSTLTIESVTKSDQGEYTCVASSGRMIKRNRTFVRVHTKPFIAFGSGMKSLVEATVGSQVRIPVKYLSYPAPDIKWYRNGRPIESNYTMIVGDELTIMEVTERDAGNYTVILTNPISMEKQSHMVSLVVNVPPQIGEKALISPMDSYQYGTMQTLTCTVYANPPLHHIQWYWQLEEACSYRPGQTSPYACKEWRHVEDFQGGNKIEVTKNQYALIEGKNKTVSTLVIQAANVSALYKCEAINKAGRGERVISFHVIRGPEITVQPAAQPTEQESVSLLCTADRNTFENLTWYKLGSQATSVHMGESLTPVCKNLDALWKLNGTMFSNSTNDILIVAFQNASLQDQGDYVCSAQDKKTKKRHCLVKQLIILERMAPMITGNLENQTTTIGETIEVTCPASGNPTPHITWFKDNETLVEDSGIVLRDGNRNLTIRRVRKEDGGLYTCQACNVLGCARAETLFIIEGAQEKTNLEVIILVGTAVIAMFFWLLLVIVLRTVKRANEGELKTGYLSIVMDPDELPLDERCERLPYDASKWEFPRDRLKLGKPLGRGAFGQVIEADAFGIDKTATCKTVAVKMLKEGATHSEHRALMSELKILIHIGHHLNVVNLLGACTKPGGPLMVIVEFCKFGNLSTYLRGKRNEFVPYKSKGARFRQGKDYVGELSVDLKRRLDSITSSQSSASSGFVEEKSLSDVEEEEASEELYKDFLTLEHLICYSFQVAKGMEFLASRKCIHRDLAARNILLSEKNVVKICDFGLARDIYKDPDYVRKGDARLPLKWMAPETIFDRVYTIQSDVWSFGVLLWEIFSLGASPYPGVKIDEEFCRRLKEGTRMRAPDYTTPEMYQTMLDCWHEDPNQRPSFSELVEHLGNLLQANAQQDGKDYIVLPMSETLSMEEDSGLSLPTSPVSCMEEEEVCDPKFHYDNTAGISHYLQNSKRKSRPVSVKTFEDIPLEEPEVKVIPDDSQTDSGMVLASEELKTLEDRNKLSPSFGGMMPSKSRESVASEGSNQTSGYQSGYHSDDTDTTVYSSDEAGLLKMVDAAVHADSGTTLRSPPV

With `COc1cc2c(Nc3ccc(Br)cc3F)ncnc2cc1OCCn1ccnn1` [ZD4190], the “effect on VEGF stimulation of luciferase expression” value is listed as “affected luciferase expression in a dose-response manner”.
